Experimental data taken from patent US5660842A, “Inhibition of helicobacter” (Bristol-Myers Squibb Company, priority 1995, dated 1997).
In brackets after ≈: the same amount, converted by molar mass. Where two headings read alike, the source gives them in different places.

Legend:
Helicobacter pylori [1] = format: cell-based, Helicobacter pylori (HP-2, HP-4, HP-5); details: for Frequency of resistance / Resistant variants of H. pylori: concentrations as low as two times the MIC; for Frequency of resistant mutants (number of spontaneous mutants): ~1 × 10^8 CFU; for Frequency of innate resistance compared with MG and FFA: H. pylori strains, Table 7
Helicobacter felis = assay: H. felis infected mouse model (urease activity and histology of gastric tissue); format: in vivo, Helicobacter felis in adult mice
From the text: The restricted host range of Helicobacter pylori has hampered the development of a widely accepted animal model of H. pylori infection. […] Other animal models of Helicobacter infection have been described based on bacteria similar to H. pylori that have been found in the gastric mucosa of various animals such as the ferret, cat, and monkey. One such model involves the inoculation of adult mice with Heicobacter felis (Fox, J. G., J. C. Murphy, N. S. Taylor, A. Lee, Z. Kabob, and L. Pappo., Local and systemic immune responses in murine Helicobacter felis active chronic gastritis., Infect. Immun. 1993; 61:2309-2315; Dick-Hegedus, E., and A. Lee. Use of a mouse model to examine anti-Helicobacter pylori agents., Scand. J. Gastroenterol. 1991;26:909-915). Preliminary studies were conducted to evaluate the anti-infective activity of MG and FFA against Helicobacter infection in vivo using the H. felis infected mouse model. […] Two weeks later mice were randomized into treatment groups and maintained on liquid diet alone or the same diet supplemented with C10:0 MG or C12:0 MG at a level of 1,5, or 10 mM. Gastric colonization with H. felis in mice was determined 1 and 3 weeks later by evaluation of urease activity ([…]. Barody, A. Gal, and A. Lee., Campylobacter pyloridis gastritis I: Detection of urease as a marker of bacterial colonization and gastritis. Am. J. Gastroenterol. 1987; 82: 292-296) and histopathological assessment of bacterial infection in gastric tissues.

Helicobacter pylori [2] = assay: Viability of H. pylori after 1 hour in prototype nutritional compositions containing FFA or MG (Example 3, Table 6); format: cell-based, Helicobacter pylori (ATCC 43629); details: for Reductions in viability of H. pylori: 10 mM for 1 hour; for Change in viable cell number: 1 hour; for Inhibition in nutritional compositions: levels as high as 20 mM
Helicobacter pylori [3] = assay: Viability of H. pylori after 1 hour with FFA or MG in Brucella broth (plate count, Example 1, Table 1); format: cell-based; details: for Reduction in number of viable H. pylori cells (CFU/mL): 1 hour, 37° C.; for Reductions in cell numbers: test strains HP-2, HP-4, HP-5, 1 hour incubation; for Effect on test strains of H. pylori: up to 5 mM, three strains
Helicobacter pylori [4] = assay: Minimal inhibitory concentration (MIC) for H. pylori (Example 5); format: cell-based
H. pylori = details: reported in literature; cited from earlier work
[5] = Nutrament (Formulation II), 5 mM
[6] = Nutrament (Formulation II), 10 mM
[7] = Sustacal (Formulation I), 10 mM
[8] = Ultracal (Formulation III), 5 mM
[9] = Ultracal (Formulation III), 10 mM
[10] = Helicobacter pylori, Table 7, read-out: MIC
[11] = Nutrament (Formulation II), 20 mM
[12] = Sustacal (Formulation I), 20 mM
[13] = Ultracal (Formulation III), 20 mM

Compound | Frequency of resistant mutants (number of spontaneous mutants) (Helicobacter pylori [1]; strain 43579, 2 × MIC) | Frequency of resistant mutants (number of spontaneous mutants) (Helicobacter pylori [1]; strain 43579, 5 × MIC) | Frequency of resistant mutants (number of spontaneous mutants) (Helicobacter pylori [1]; strain 43579, 10 × MIC) | Frequency of resistant mutants (number of spontaneous mutants) (Helicobacter pylori [1]; strain 43629, 2 × MIC) | Frequency of resistant mutants (number of spontaneous mutants) (Helicobacter pylori [1]; strain 43629, 5 × MIC) | Frequency of resistant mutants (number of spontaneous mutants) (Helicobacter pylori [1]; strain 43629, 10 × MIC) | Frequency of resistant mutants (number of spontaneous mutants) (Helicobacter pylori [1]; strain 49503, 2 × MIC) | Frequency of resistant mutants (number of spontaneous mutants) (Helicobacter pylori [1]; strain 49503, 5 × MIC) | Frequency of resistant mutants (number of spontaneous mutants) (Helicobacter pylori [1]; strain 49503, 10 × MIC) | Reductions in viability of H. pylori (Helicobacter pylori [2]) [fold] | Change in viable cell number (Helicobacter pylori [2]; [5]) [LOG CFU/mL] | Change in viable cell number (Helicobacter pylori [2]; [6]) [LOG CFU/mL] | Change in viable cell number (Helicobacter pylori [2]; Sustacal (Formulation I), 5 mM) [LOG CFU/mL] | Change in viable cell number (Helicobacter pylori [2]; [7]) [LOG CFU/mL] | Change in viable cell number (Helicobacter pylori [2]; [8]) [LOG CFU/mL] | Change in viable cell number (Helicobacter pylori [2]; [9]) [LOG CFU/mL] | Reductions in cell numbers (Helicobacter pylori [3]) | Change in viable cell number (Helicobacter pylori [2]; [13]) [LOG CFU/mL] | also measured
CCCCCCCCCC(=O)OCC(O)CO (centres unmarked) [Monocaprin, monocaprin] | < 1 | < 1 | < 1 | < 1 | < 1 | < 1 | < 1 | < 1 | < 1 | ≥ 1000 | -4.00 | -4.14 | -3.78 | -3.91 | -4.40 | -4.40 | ≥ 10,000 fold | – | Frequency of resistance (Helicobacter pylori [1]): < 1×10^-8; Resistant variants of H. pylori (Helicobacter pylori [1]): no resistant variants of H. pylori were found; Histology score (Helicobacter felis; 10 mM in diet, three weeks): remained lower; Numbers of urease positive and histology positive mice (Helicobacter felis; diet, three weeks after initiation of treatment): comparable to the number observed in the infected control group (~80-100%); Number of urease and histology positive mice (Helicobacter felis; liquid diet with MG at 1, 5 or 10 mM, 1 week of treatment): dose-related reductions in the number of urease and histology positive mice; Reduction in H. felis infection (Helicobacter felis; second study, daily intragastric gavage 1.4 or 2.8 mg/day, 1 or 3 weeks): no significant reduction in H. felis infection; Level of infection (histology score) (Helicobacter felis; urease positive mice vs control, diet, 1 week): Lower levels of infection; Reduction in number of viable H. pylori cells (CFU/mL) (Helicobacter pylori [3]; ATCC #43579, 1 mM): > 100,000 fold; Reduction in number of viable H. pylori cells (CFU/mL) (Helicobacter pylori [3]; ATCC #43629, 1 mM): > 60,000 fold; Reduction in number of viable H. pylori cells (CFU/mL) (Helicobacter pylori [3]; ATCC #49503, 1 mM): > 30,000 fold; MIC (Helicobacter pylori [4]; Table 7): 60.0 µg/mL (≈ 244 µM); MIC (Helicobacter pylori [4]; preliminary studies): approximately 60 mg/L
Cc1ncc([N+](=O)[O-])n1CCO [metronidazole, reference compound] | – | – | – | 791 | < 1 | < 1 | > 1000 | 48 | < 1 | – | – | – | – | – | – | – | – | – | Frequency of innate resistance compared with MG and FFA (Helicobacter pylori [1]): consistently higher; Frequency of resistant mutants (number of spontaneous mutants) (Helicobacter pylori [1]; strain 43679 (so in the source), 2 × MIC): > 1000; Frequency of resistant mutants (number of spontaneous mutants) (Helicobacter pylori [1]; strain 43679 (so in the source), 5 × MIC): 862; Frequency of resistant mutants (number of spontaneous mutants) (Helicobacter pylori [1]; strain 43679 (so in the source), 10 × MIC): 518; MIC (Helicobacter pylori [4]; [10]): 2 µg/mL (≈ 11.7 µM)
CCCCCCCC(=O)O [Caprylic Acid, caprylic acid, reference compound] | – | – | – | – | – | – | – | – | – | – | – | – | 0.00 | 0.00 | 0.06 | -0.20 | – | -0.81 | Change in viable cell number (Helicobacter pylori [2]; [11]): -0.21 LOG CFU/mL; Change in viable cell number (Helicobacter pylori [2]; [12]): 0.02 LOG CFU/mL; Inhibition in nutritional compositions (Helicobacter pylori [2]): not inhibitory; Effect on test strains of H. pylori (Helicobacter pylori [3]): None of the test strains of H. pylori were affected
CCCCCCCCCC(=O)O [Capric Acid, capric acid, reference compound] | – | – | – | – | – | – | – | – | – | – | – | – | 0.00 | 0.00 | 0.03 | -0.03 | – | -0.33 | Change in viable cell number (Helicobacter pylori [2]; [11]): -0.08 LOG CFU/mL; Change in viable cell number (Helicobacter pylori [2]; [12]): -0.09 LOG CFU/mL; Inhibition in nutritional compositions (Helicobacter pylori [2]): not inhibitory; Effect on test strains of H. pylori (Helicobacter pylori [3]): None of the test strains of H. pylori were affected
CN(C)C1C(=O)C(C(N)=O)=C(O)C2(O)C(=O)C3=C(O)c4c(O)cccc4C(C)(O)C3CC12 (centres unmarked) [tetracycline, reference compound] | TNTC | TNTC | < 1 | > 1000 | 242 | < 1 | 148 | < 1 | < 1 | – | – | – | – | – | – | – | – | – | Frequency of innate resistance compared with MG and FFA (Helicobacter pylori [1]): consistently higher; MIC (Helicobacter pylori [4]; [10]): 0.1 µg/mL (≈ 0.225 µM)
CCCCCCCCCCCC(=O)OCC(O)CO (centres unmarked) [Monolaurin, monolaurin] | < 1 | < 1 | < 1 | < 1 | < 1 | < 1 | < 1 | < 1 | < 1 | ≥ 1000 | -4.23 | -3.87 | -3.41 | -3.77 | -3.04 | -4.40 | ≥ 10,000 fold | – | Frequency of resistance (Helicobacter pylori [1]): < 1×10^-8; Resistant variants of H. pylori (Helicobacter pylori [1]): no resistant variants of H. pylori were found; Reduction in number of viable H. pylori cells (CFU/mL) (Helicobacter pylori [3]; ATCC #43579, 1 mM): > 100,000 fold; Reduction in number of viable H. pylori cells (CFU/mL) (Helicobacter pylori [3]; ATCC #43629, 1 mM): > 50,000 fold; Reduction in number of viable H. pylori cells (CFU/mL) (Helicobacter pylori [3]; ATCC #49503, 1 mM): > 30,000 fold; MIC (Helicobacter pylori [4]; Table 7): 15.0 µg/mL (≈ 54.7 µM); MIC (Helicobacter pylori [4]; preliminary studies): ~15 µg/mL (≈ 54.7 µM)
CCCCC/C=C\C/C=C\C/C=C\C/C=C\CCCC(=O)O [arachidonic acid] | – | – | – | – | – | – | – | – | – | – | – | – | – | – | – | – | – | – | Inhibitory effect on H. pylori (H. pylori): inhibitory effect on H. pylori
CCCCCCCC(=O)OCC(O)CO (centres unmarked) [Monocaprylin, monocaprylin] | – | – | – | – | – | – | – | – | – | ≥ 1000 | -4.23 | -4.23 | 0.37 | -3.44 | 0.00 | -3.64 | ≥ 1000 fold | -4.46 | Reduction in number of viable H. pylori cells (CFU/mL) (Helicobacter pylori [3]; ATCC #43579, 5 mM): > 4,000 fold; Reduction in number of viable H. pylori cells (CFU/mL) (Helicobacter pylori [3]; ATCC #43629, 5 mM): > 3,000 fold; Reduction in number of viable H. pylori cells (CFU/mL) (Helicobacter pylori [3]; ATCC #49503, 5 mM): > 40,000 fold
CC/C=C\C/C=C\C/C=C\CCCCCCCC(=O)O [ω-3 linolenic acid] | – | – | – | – | – | – | – | – | – | – | – | – | – | – | – | – | – | – | Inhibitory effect on H. pylori (H. pylori): inhibitory effect on H. pylori
